{"source": "patent US20030083483A1", "about": "“Molecular interaction sites of vimentin RNA and methods of modulating the same” (priority 1999, published 2003)", "key": {"[1]": {"target": "27-mer model RNA sequence of the 16S A-site", "assay": "MASS mass spectrometry binding assay with 16S A-site 27-mer RNA", "design": "species or system prokaryotic", "protocol": "The compounds are screened for binding affinity using MASS or conventional high-throughput functional screens. The best scoring compounds from docking a 256-member library against the 16S A-site ribosomal RNA structure are shown in the table 5 below. The MASS assay was performed with the 27-mer model RNA sequence of the 16S A-site whose NMR structure has been determined. The transcription/translation assay was based on expression of a luciferase plasmid.\nA preferred first step of MASS screening involves mixing the RNA target (or targets) with a combinatorial library of ligands designed to bind to a specific site on the target molecule(s). Specific noncovalent complexes formed in solution between the target(s) and any library members are transferred into the gas phase and ionized by ESI. As described herein, from the measured mass difference between the complex and the free target, the identity of the binding ligand can be determined. The dissociation constant of the complex can be determined in two ways: if a ligand with a known binding affinity for the target is available, a relative Kd can be measured by using the known ligand as an internal control and measuring the abundance of the unknown complex to the abundance of the control, alternatively, if no internal control is available, Kd's can be determined by making a series of measurements at different ligand concentrations and deriving a Kd value from the “titration” curve.\nIn a direct determination of solution phase dissociation constants (Kd's) by mass spectrometry, ESI-MS measurements of a solution containing a fixed concentration of RNA at different concentrations of ligand were obtained. By measuring the ratio of bound:unbound RNA at varying ligand concentrations, the Kd was determined by 1/slope of the “titration curve”. The MS derived value of 110 nM is in good agreement with previously reported literature value of 200 nM.\nAll mass spectrometry experiments were performed using an Apex II 70e electrospray ionization Fourier transform ion cyclotron resonance mass spectrometer (Bruker Daltonics, Billerica) employing an actively shielded 7 tesla superconducting magnet. RNA solutions were prepared in 50 mM NH4OAc (pH 7), mixed 1:1 v:v with isopropanol to aid desolvation, and infused at a rate of […] using a syringe pump. Ions were formed in a modified electrospray source (Analytica, Branford) employing an off axis, grounded electrospray probe positioned ca. 1.5 cm from the metalized terminus of the glass desolvation capillary biased at 5000 V. A counter-current flow of dry […] gas heated to 225C was employed to assist in the desolvation process. Ions were accumulated in an external ion reservoir comprised of an RF-only hexapole, a skimmer cone, and an auxiliary electrode for 1000 ms prior to transfer into the trapped ion cell for mass analysis. Each spectrum was the result of the coaddition of 16 transients comprised of […] acquired over a 90,909 kHz bandwidth resulting in a 700 ms detection interval. All aspects of pulse sequence control, data acquisition, and post acquisition processing were performed using a Bruker Daltonics datastation running XMASS version 4.0 on a Silicon Graphics (San Jose, Calif.) R5000 computer.\nMass spectrometry experiments were performed in order to detect complex formation between a library containing five aminoglycosides (Sisomicin (Sis), Tobramycin (Tob), Bekanomycin (Bek), Paromomycin (PM), and Livodomycin (LV)) and two RNA targets simultaneously. Signals from the (M-5H+)^5− charge states of free 16S and 18S RNAs are detected at m/z 1801.515 and 1868.338, respectively. The mass spectrometric assay reproduces the known solution binding properties of aminoglycosides to the 16S A site model and an 18S A site model with a neutral mass linker. Consistent with the higher binding affinity of theses aminoglycosides for the 16S A-site relative to the 18S A-site, aminoglycoside complexes are observed only with the 16S rRNA target. […]"}, "18S A site model": {"tested_on": "18S A site model", "assay": "ESI-FTICR mass spectrometric complex detection with 18S A-site model RNA", "format": "binding, eukaryotic", "settings": "mixture of five aminoglycosides, 16S and 18S targets simultaneously", "protocol": "Paromomycin, lividomycin (MW=761.354 Da), sisomicin (MW=447.269 Da), tobramycin (MW=467.2591 Da), and bekanamycin (MW=483.254 Da) were obtained from Sigma (St. Louis, Mo.) and ICN (Costa Mesa, Calif.) and were dissolved to generate 10 mM stock solutions. 2′ methoxy analogs of RNA constructs representing the prokaryotic (16S) rRNA and eukaryotic (18S) rRNA A-site were synthesized in house and precipitated twice from 1 M ammonium acetate following deprotection with ammonia (pH 8.5). The mass-tagged constructs contained an 18-atom mass tag (C12H2509) attached to the 5′-terminus of the RNA oligomer through a phosphodiester linkage.\nAll mass spectrometry experiments were performed using an Apex II 70e electrospray ionization Fourier transform ion cyclotron resonance mass spectrometer (Bruker Daltonics, Billerica) employing an actively shielded 7 tesla superconducting magnet. […]\nMass spectrometry experiments were performed in order to detect complex formation between a library containing five aminoglycosides (Sisomicin (Sis), Tobramycin (Tob), Bekanomycin (Bek), Paromomycin (PM), and Livodomycin (LV)) and two RNA targets simultaneously. Signals from the (M-5H+)^5− charge states of free 16S and 18S RNAs are detected at m/z 1801.515 and 1868.338, respectively. […]"}}, "note": "Where two headings read alike, the source gives them in different places.", "data": [{"smiles": "NC[C@@H]1O[C@H](O[C@H]2[C@@H](O)[C@H](O[C@@H]3[C@@H](O)[C@H](N)C[C@H](N)[C@H]3O[C@H]3O[C@H](CO)[C@@H](O)[C@H](O)[C@H]3N)O[C@@H]2CO)[C@H](N)[C@@H](O)[C@@H]1O", "note": "[Paromomycin]", "values": [{"measurement": "Kd", "setting": "[1]; 16S A site 27mer, ESI-MS titration, read-out: KD measured by mass spectrometry", "value": 110, "unit": "nM"}, {"measurement": "Kd", "setting": "[1]; 27-mer model RNA of the 16S A-site, unit printed only in the Paromomycin cell and b169, read-out: MASS KD", "value": 500, "unit": "nM"}, {"measurement": "complexes detected with the 16S A site 27mer RNA", "setting": "[1]; ESI-FTICR, mixture of five aminoglycosides, 16S and 18S targets simultaneously", "value": "High affinity complexes"}, {"measurement": "complexes with the 18S A site model", "setting": "18S A site model", "value": "absence"}]}]}
